Test results: ChEMBL document CHEMBL3758152, “11-Hydroxylation of Protoberberine by the Novel Berberine-Utilizing Aerobic Bacterium Sphingobium sp. Strain BD3100” (2015)
Activity calls are given as the source filed them. The rule behind the calls is not given here.

Columns and labels:
Staphylococcus aureus [1] = experiment: Antibacterial activity against Staphylococcus aureus H209P at 125 nmol/disk after 12 hrs by paper disk method; type: functional
Staphylococcus aureus [2] = experiment: Antibacterial activity against Staphylococcus aureus H209P at 250 nmol/disk after 12 hrs by paper disk method; type: functional, organism-based

`COc1ccc2cc3[n+](cc2c1OC)CCc1cc2c(cc1-3)OCO2` [BERBERINE] was tested, and the “diameter of the inhibition zone (DIZ)” value (Staphylococcus aureus [1]) was 12 mm.
In the case of `COc1cc2c(cc1OC)-c1cc3cc(O)c(OC)c(OC)c3c[n+]1CC2`, the Activity (Staphylococcus aureus [2]) is reported as “inactive”.
In the case of `COc1c(O)cc2cc3[n+](cc2c1OC)CCc1cc2c(cc1-3)OCO2`, the Activity (Staphylococcus aureus [2]) is reported as “inactive”.
For `COc1c(O)cc2cc3[n+](cc2c1OC)CCc1cc(O)c(O)cc1-3`, the Activity (Staphylococcus aureus [2]) was “inactive”.
